{"source": "paper PMC12077488", "about": "(Science signaling, 2025)", "key": {"[1]": {"test_system": "DOR", "settings": "cited from earlier work"}, "[2]": {"test_system": "endogenous adenosine receptors (A1 purinergic receptors)", "experiment": "Gαi bONE-GO kinetic BRET in primary mouse cortical astroglial cells", "type": "cell-based", "settings": "lentiviral Gαi bONE-GO, N=3"}, "[3]": {"molecular_target": "Gαi (UniProt P08753)", "sequence (P08753 2-354)": "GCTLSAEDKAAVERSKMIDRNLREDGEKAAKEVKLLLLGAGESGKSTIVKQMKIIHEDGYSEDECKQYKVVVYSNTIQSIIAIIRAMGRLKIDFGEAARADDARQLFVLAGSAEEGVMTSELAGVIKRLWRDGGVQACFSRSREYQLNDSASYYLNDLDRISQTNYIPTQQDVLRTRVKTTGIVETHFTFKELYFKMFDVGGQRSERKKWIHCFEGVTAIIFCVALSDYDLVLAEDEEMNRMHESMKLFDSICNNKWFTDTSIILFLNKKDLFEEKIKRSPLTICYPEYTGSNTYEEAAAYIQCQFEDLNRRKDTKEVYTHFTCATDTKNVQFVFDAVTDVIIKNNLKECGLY", "settings": "cited from earlier work"}, "[4]": {"test_system": "GABABR", "settings": "HEK293T cells expressing GABABR, GINIP-Nluc and YFP-CAAX"}}, "note": "pKd: −log10 of the molar value.", "data": [{"compound": "Endomorphin-1", "values": [{"measurement": "DOR activity according to the source reference of the IUPHAR annotation", "setting": "[1]", "result": "inactive"}, {"measurement": "agonist efficacy annotation for DOR in the IUPHAR database", "setting": "[1]", "result": "full agonist"}]}, {"compound": "Nc1ncnc2c1ncn2[C@@H]1O[C@H](CO)[C@@H](O)[C@H]1O", "note": "[adenosine]", "values": [{"measurement": "BRET response (endogenous Gαi activation) to adenosine", "setting": "[2]", "result": "robust and concentration-dependent responses"}]}, {"compound": "GINIP (from UniProt Q9UPV7)", "values": [{"measurement": "pKd", "setting": "[3]", "result": 7.19}]}, {"compound": "Endomorphin-2", "values": [{"measurement": "agonist efficacy annotation for DOR in the IUPHAR database", "setting": "[1]", "result": "lack of annotation"}]}, {"compound": "CGP54626", "values": [{"measurement": "reversal of the GABA-induced BRET response by antagonist", "setting": "[4]", "result": "rapidly reverted"}]}]}
